This is an account of results in patent US20140323504A1, “Pyrazolo[4,3-c]Pyridine Derivatives As Kinase Inhibitors” (Cellzome Limited, priority 2011, published 2014).

The target of this assay is T1, TEC (Homo sapiens, UniProt P42680).
T1 construct: endogenous in cells; host or cells: 1:1 mix of Jurkat and Ramos cell lysates
T1 sequence (P42680 1-631): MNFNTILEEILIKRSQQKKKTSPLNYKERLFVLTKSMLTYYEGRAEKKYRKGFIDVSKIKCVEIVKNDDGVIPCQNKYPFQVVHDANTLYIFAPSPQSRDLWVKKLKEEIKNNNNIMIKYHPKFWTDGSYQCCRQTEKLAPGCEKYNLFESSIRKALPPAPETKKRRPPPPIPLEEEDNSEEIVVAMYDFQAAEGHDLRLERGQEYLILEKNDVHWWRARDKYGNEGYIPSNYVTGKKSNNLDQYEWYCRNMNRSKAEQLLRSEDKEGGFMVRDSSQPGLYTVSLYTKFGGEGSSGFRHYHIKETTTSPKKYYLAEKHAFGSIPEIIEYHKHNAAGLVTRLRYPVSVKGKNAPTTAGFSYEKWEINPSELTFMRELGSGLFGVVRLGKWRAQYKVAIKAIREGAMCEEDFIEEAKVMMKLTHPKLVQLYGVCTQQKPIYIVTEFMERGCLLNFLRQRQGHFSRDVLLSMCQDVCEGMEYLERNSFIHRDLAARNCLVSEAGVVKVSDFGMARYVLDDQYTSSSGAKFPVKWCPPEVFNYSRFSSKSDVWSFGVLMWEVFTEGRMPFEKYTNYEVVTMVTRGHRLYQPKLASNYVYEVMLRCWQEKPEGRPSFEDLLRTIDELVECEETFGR
As to the kind of experiment: Kinobeads assay with quantitative mass spectrometry, TEC. The class given is binding. The settings on record: Jurkat/Ramos lysate, read-out: TEC inhibition value (IC50). Here is the method: Selected compounds of the present invention as described in the previous examples were tested in a Kinobeads™ assay as described (WO-A 2006/134056; Bantscheff et al., 2007. Nature Bioteclmol. 25, 1035-1044).
Compounds were incubated with cell lysate aliquots (1:1 mix of Jurkat and Ramos cell lysates) for 45 minutes at 4° C. and allowed to bind to the proteins in the lysate sample. Then the Kinobeads™ affinity matrix was added to capture proteins that were not interacting with the previously added compound. After this two hour incubation step at 4° C. beads were separated from the lysate and bead bound proteins were eluted in SDS sample buffer and subsequently separated by SDS-Polyacrylamide gel electrophoresis. […] The TMT reagents are a set of multiplexed, amine-specific, stable isotope reagents that can label peptides in up to six different biological samples enabling simultaneous identification and quantitation of peptides. The combined samples were fractionated using reversed-phase chromatography at pH 11 and fractions were subsequently analyzed with a nano-flow liquid chromatography system coupled online to a tandem mass spectrometer (LC-MSMS) experiment followed by reporter ion quantification in the MSMS spectra (Ross et al., 2004. Mol. Cell. Proteomics 3(12):1154-1169; Dayon et al., 2008. Anal. Chem. 80(8):2921-2931; Thompson et al., 2003. Anal. Chem. 75(8):1895-1904). […]

As usually defined, the IC50 is the concentration that inhibits the measured activity by half. Take `C=CC(=O)Nc1cc(Cn2ncc3cnc(Nc4cnn(C)c4)nc32)ccc1F` [Example 2, […]]: the IC50 turned out to be 34 nM. Turning to `C=CC(=O)Nc1cccc(Cn2ncc3cnc(Nc4cnn(C)c4)nc32)c1` [Example 1, N-(3-((6-((1-Methyl-1H-pyrazol-4-yl)amino)-1H-pyrazolo[3,4-d]pyrimidin-1-yl)methyl)phenyl)acrylamide], the IC50 amounted to 12 nM.
